Measured values from ChEMBL document CHEMBL1150465, “DNA topoisomerase II inhibition by substituted 1,2,3,4-tetrahydro--carboline derivatives” (Bioorg Med Chem Lett, 1994).
Active and inactive are the calls of the source. The calls are words filed in the database; no cut-off is given here.

Assays:
Nucleic Acid [1] = assay: DNA intercalating activity was determined; Each (+) indicates 1 to 2 -fold increase; format: functional
[2] = biological target: T1, DNA topoisomerase II (Homo sapiens) (UniProt P11388+Q02880); assay: Compound was tested for DNA Topoisomerase II mediated cleavage of DNA; Each + indicates 2 to 4 fold increase; format: protein assay
[3] = biological target: T1, DNA topoisomerase II (Homo sapiens); assay: Compound was tested for DNA Topoisomerase II mediated cleavage of DNA; inactive; format: protein assay
[4] = biological target: T1, DNA topoisomerase II (Homo sapiens); assay: Compound was tested for DNA Topoisomerase II mediated cleavage of DNA; Each (+) indicates 1 to 2 -fold increase; format: protein assay
Nucleic Acid [5] = assay: DNA intercalating activity was determined; Each + indicates a 2 to 4 fold increase; format: functional
[6] = biological target: T1, DNA topoisomerase II (Homo sapiens); assay: Compound was tested for DNA Topoisomerase II mediated cleavage of DNA; No increase; format: protein assay

COC(=O)N1CCc2c([nH]c3ccccc23)C1c1cc(OC)c(O)c(OC)c1 (stereo in doubt; 5)
Activity (Nucleic Acid [1]): (+)
Activity [2]: denotes 2 to 4 fold increase

COC(=O)N1CCc2c([nH]c3ccccc23)C1c1cc(OC)c(OC)c(OC)c1 (configuration not stated)
Activity [3]: inactive

COC(=O)N1CCc2c([nH]c3ccccc23)C1c1ccc(NS(C)(=O)=O)c(OC)c1 (configuration not stated)
Activity [4]: +

COc1cc(C2C3Nc4ccccc4C3CC3CCC(=O)N32)cc(OC)c1O (configuration not stated)
Activity [2]: ++

COC(=O)N1CCc2c([nH]c3ccccc23)C1c1cc(OC)c(O)c(OC)c1 (stereo in doubt; 4)
Activity (Nucleic Acid [5]): denotes 2 to 4 fold increase
Activity [2]: ++(+)

COc1cc([C@@H]2c3cc4c(cc3[C@@H](O[C@@H]3O[C@@H]5CO[C@@H](C)O[C@H]5[C@H](O)[C@H]3O)[C@H]3COC(=O)[C@H]23)OCO4)cc(OC)c1O
Activity (Nucleic Acid [1]): (+)
Activity [2]: ++

COC(=O)N1CCc2c([nH]c3ccccc23)C1c1ccc(N)c(OC)c1 (configuration not stated)
Activity [4]: +

COC(=O)N1CCc2c([nH]c3ccccc23)C1c1ccc(O)cc1 (configuration not stated)
Activity [3]: inactive

COC(=O)N1CCc2cc3c(cc2C1c1cc(OC)c(O)c(OC)c1)OCO3 (configuration not stated)
Activity [6]: No increase
